We go through one compound from paper PMC8986850, “Development and exploration of novel substituted thiosemicarbazones as inhibitors of aldose reductase via in vitro analysis and computational study” (Scientific Reports, 2022).

In this test the target is T1, human AKR1B1 (hAKR1B1) (Homo sapiens, UniProt P15121).
T1 construct: made in house; host or cells: E. coli BL21 (DE3)
As to the kind of experiment: Inhibition of expressed human AKR1B1 (E. coli BL21 (DE3)). Conditions: human AKR1B1 expressed in E. coli BL21 (DE3), mean ± SEM of three measurements. It is filed as biochemical. The protocol: For the enzyme inhibition assay, ALR2 and ALR1 were extracted from bovine sources (ALR2 from eyes and ALR1 from kidneys). Moreover, inhibitions studies were also carried out on the expressed ALR2 (human AKR1B1) and inhibition data for ALR2- bovine source and expressed enzyme was compared and analyzed. The protocols for enzyme extraction and expression in the bacterial system are included in the section of “Supporting information”. […] For the purpose of comparison and validation of enzyme inhibition data, these compounds were tested against human AKR1B1 (hAKR1B1) expressed in E. coli BL21 (DE3).
For the determination of enzyme activity of ALR1 and ALR2, 100 µL of reaction mixture was composed of 20 µL of buffer (100 mM sodium phosphate, pH 6.2), 30 µL of enzyme extract, 20 µL of substrate (10 mM), 20 µL of cofactor (0.1 mM of NADPH) and 10 µL of test compound (1 mM)[6],[21]. […] Similar protocols were followed for ALR1 and ALR2, however the substrate was different for each enzyme, with sodium-D-glucoronate and DL-glyceraldehyde used as the substrates for the ALR1 and ALR2 assays, respectively. […] In addition, similar protocols were adopted for human AKR1B1 that was expressed in E. coli BL21 (DE3), though the determined protein concentration was 12 µg/mL for the expressed enzyme. Detailed protocols for the preparation of ALR1, ALR2 and expressed human AKR1B1 can be found in the supporting information.
The newly synthesized N-substitute thiosemicarbazones (3a-o) were dissolved in 100% DMSO and diluted with deionized water, keeping the DMSO concentration equal to 0.1% in the assay.
The expression plasmid for aldose reductase (pDONR223_AKR1B1_WT) was gift from Addgene in stable culture. Streaking of this culture has been carried out on LB Agar plate then incubated overnight, after growth of colonies , inoculation was performed in LB medium then incubated this medium in shaking incubator at 37 °C. After 48 hours turbidity was measured when OD=0.6 then some of bacterial growth was prepared as 50% glycerol stock. Others are subjected to plasmid isolation following method Miniprep. Meanwhile E. Coli BL21 De3 cells were made competent then transformation with extracted plasmid (AKR1B1) had been carried out heat shock method. Transformed cell ( E.Coli BL21 DE3+AKR1B1) were grown in 37 °C in shaking incubator for 48 hr. The selection for transformed cells was carried out with the help of antibiotic (spectinomycin 50µg/ml). […] For the expression of aldose reductase , E.coli BL21DE3 were induced with of IPTG(Isopropyl-d-thiogalactopyranoside)[3]. […] The expressed enzyme was stabilized by addition 10 mM Tris–HCl buffer, 0.5 mM EDTA, 5 mM β-marcaptoethanol at pH 8.0 and 20% (v/v) glycerol. Cells were lysed with lysis buffer and then precipitation with ammonium sulfate up to 80% saturation was done . the expressed enzyme was dialyzed overnight against tris buffer. Protein quantification was performed following Bradford protein assay. Aliqoutes were stored at -80 refrigerator.

`CC(C)(C)c1cc(C=NNC(=S)Nc2ccccc2F)c(O)c(C(C)(C)C)c1` [Compound 3m, 2-(3,5-di-tert-butyl-2-hydroxybenzylidene)-N-(2-fluorophenyl)hydrazine carbothioamide] registered an IC50 of 1.36 ± 0.004 µM.

The IC50 is the concentration that gives 50% inhibition. A high value points to weaker potency.
